Results from patent publication US6765085B2, “Receptor kinase, BIN1” (The Salk Institute for Biological Studies, priority 1997, dated 2004).
Like-named read-outs stand apart in the source and are kept apart here.

How the values were obtained:
plants = settings: cited from earlier work
BIN1 [1] = molecular target: T1, BIN1 (Arabidopsis thaliana, UniProt O22476); assay: BL induced BIN1 phosphorylation in seedlings (mobility shift on SDS-PAGE, immunoblot); type: in vivo; parameters: from tissue; host or cells: wild-type Arabidopsis seedlings (microsomal fractions in A2; whole seedlings in A10); settings: det2 BL biosynthetic mutant seedlings, 1 μM BL for 1 hour
T1 sequence (O22476 24-1196): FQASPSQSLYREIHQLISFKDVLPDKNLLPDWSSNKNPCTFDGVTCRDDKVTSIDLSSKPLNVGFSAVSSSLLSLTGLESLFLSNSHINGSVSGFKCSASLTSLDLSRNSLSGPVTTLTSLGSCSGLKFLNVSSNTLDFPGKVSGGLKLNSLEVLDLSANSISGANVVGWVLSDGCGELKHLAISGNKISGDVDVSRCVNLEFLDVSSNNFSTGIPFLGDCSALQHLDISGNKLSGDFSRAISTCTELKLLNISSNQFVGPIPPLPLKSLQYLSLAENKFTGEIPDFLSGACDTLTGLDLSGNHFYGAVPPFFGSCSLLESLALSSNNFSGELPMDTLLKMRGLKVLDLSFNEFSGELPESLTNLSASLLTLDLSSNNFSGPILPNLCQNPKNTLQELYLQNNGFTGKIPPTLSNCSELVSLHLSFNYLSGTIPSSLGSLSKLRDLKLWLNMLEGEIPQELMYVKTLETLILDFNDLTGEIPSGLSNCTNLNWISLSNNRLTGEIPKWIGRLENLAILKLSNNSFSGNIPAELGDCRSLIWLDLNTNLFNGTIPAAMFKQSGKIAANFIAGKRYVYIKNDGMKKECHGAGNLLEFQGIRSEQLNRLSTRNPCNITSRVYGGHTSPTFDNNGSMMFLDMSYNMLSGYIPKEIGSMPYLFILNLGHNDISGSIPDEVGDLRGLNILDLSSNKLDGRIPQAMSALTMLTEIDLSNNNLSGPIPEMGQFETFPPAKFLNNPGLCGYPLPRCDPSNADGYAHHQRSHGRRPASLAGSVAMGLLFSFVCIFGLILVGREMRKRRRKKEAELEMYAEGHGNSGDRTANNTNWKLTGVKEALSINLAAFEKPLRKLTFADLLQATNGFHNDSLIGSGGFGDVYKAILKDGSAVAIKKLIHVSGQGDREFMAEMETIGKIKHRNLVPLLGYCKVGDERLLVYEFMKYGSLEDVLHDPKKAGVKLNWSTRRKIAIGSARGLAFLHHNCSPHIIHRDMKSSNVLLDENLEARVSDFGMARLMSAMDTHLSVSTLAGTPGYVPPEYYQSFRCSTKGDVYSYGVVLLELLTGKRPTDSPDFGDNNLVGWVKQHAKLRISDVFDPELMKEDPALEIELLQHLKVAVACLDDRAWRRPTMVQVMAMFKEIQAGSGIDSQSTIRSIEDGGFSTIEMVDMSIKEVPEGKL
Procedure: (§3) Proteins were analyzed by 4% SDS-PAGE, blotted, and probed with anti-BIN1N antibody. b.
(§4) Samples were analyzed by SDS-PAGE using 4% gels and western blotting as described above. […] For phosphatase treatment, SDS was removed from protein samples using the SDS-OUT kit (Pierce), and the proteins were then treated with alkaline phosphatase (Boehringer Mannheim) and protein phosphatase I (PPI, New England Biolab) under conditions recommended by the manufacturer and as described.

[2] = molecular target: T2, BIN1-6, G644-D (70-aa island) (Arabidopsis thaliana, UniProt O22476, G644D); type: binding; settings: BIN1-6 mutant, compared with wild type
T2 construct: microsomal fractions of wild type (WT), det2, BIN1-6, BIN1-116, BIN1-104, and BIN1-102 mutant plants; from tissue; host or cells: microsomal fractions of BIN1-6 mutant Arabidopsis plants
Text: (§1) Mutations in large numbers of BIN1 alleles implicate the functional importance of the cytoplasmic kinase domain and the 70-aa island of BIN1's extracellular domain.
(§2) Tetrahedron Lett. 39, 7525-7528 (1998). […] Science 288, 2360-3 (2000).

[3] = molecular target: T3, BIN1-116, Q583-stop (70-aa island) (Arabidopsis thaliana, UniProt O22476); type: binding; settings: BIN1-116 mutant, compared with wild type
T3 construct: microsomal fractions of wild type (WT), det2, BIN1-6, BIN1-116, BIN1-104, and BIN1-102 mutant plants; from tissue; host or cells: microsomal fractions of BIN1-116 mutant Arabidopsis plants
T3 sequence (O22476 24-582 limits assumed): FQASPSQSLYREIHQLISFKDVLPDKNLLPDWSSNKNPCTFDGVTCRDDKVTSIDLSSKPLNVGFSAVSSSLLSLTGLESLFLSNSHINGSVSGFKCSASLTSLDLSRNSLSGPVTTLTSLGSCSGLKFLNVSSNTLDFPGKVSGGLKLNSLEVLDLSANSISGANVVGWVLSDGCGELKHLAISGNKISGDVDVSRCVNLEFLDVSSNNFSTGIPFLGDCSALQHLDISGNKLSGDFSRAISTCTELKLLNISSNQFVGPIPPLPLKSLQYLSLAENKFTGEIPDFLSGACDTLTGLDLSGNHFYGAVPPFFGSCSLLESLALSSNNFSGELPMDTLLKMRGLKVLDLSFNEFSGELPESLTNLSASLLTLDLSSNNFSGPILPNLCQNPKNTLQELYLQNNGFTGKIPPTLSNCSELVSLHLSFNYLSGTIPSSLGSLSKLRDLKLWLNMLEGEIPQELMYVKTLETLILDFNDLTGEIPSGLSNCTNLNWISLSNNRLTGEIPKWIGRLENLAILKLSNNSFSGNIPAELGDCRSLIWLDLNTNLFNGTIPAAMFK
Text: as §1, §2

BIN1-GFP [4] = molecular target: T4, BIN1-GFP (Arabidopsis thaliana, UniProt O22476); settings: membrane fractions of BIN1-GFP transgenic plants
BIN1 [5] = molecular target: T1, BIN1; assay: Binding kinetic studies of specific BL binding; parameters: from tissue; host or cells: wild-type Arabidopsis seedlings (microsomal fractions in A2; whole seedlings in A10)
Text: as §2

BIN1 [6] = molecular target: T1, BIN1; settings: membrane fractions of wild-type plants
BIN1 [7] = assay: BL induced BIN1 phosphorylation in seedlings (mobility shift on SDS-PAGE, immunoblot); type: in vivo, Arabidopsis; settings: BIN1-6 and BIN1117 mutant seedlings, 1 μM BL for 1 hour
Procedure: as §3, §4

BIN1-GFP [8] = molecular target: T4, BIN1-GFP; type: binding; parameters: expressed in transfected cells; host or cells: transgenic Arabidopsis plants (microsomal fractions, or anti-GFP immunoprecipitate from extracts)

T4 sequence (O22476 with tags, fused parts or gaps): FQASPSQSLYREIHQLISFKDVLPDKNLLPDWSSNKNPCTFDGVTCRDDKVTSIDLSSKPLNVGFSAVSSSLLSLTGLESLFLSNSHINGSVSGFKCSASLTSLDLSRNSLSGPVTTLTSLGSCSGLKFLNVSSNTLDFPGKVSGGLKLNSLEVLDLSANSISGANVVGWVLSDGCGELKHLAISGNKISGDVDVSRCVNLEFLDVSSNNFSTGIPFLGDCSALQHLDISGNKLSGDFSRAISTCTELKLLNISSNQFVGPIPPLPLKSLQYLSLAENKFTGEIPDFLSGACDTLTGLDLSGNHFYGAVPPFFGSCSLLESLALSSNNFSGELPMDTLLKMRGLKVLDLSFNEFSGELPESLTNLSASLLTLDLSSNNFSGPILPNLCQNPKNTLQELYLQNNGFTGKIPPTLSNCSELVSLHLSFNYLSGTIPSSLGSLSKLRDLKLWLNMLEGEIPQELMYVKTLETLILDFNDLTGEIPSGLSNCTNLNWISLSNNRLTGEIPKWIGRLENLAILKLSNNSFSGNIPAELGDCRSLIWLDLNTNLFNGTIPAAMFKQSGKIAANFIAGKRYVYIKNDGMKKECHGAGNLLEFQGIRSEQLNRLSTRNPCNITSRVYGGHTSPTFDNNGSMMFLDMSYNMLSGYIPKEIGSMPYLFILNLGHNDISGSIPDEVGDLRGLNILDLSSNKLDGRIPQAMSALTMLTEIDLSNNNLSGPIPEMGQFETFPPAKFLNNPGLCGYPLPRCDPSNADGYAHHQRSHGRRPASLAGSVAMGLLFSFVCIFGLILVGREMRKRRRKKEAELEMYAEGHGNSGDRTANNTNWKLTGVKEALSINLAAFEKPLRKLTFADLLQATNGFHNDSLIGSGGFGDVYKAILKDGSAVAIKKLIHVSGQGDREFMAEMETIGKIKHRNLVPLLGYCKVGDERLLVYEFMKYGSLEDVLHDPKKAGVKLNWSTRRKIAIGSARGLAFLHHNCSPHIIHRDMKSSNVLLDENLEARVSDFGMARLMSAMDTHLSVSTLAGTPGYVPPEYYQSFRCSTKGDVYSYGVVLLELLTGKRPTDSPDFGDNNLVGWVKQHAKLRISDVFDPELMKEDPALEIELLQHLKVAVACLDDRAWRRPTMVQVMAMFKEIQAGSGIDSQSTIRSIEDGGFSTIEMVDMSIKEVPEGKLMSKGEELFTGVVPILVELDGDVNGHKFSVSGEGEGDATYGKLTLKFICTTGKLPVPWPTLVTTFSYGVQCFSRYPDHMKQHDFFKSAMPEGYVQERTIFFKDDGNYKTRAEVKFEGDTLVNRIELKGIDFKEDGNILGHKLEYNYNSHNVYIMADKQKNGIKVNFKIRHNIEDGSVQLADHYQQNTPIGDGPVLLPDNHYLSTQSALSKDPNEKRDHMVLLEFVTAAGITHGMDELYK
T2 sequence (O22476 24-1196 G644D): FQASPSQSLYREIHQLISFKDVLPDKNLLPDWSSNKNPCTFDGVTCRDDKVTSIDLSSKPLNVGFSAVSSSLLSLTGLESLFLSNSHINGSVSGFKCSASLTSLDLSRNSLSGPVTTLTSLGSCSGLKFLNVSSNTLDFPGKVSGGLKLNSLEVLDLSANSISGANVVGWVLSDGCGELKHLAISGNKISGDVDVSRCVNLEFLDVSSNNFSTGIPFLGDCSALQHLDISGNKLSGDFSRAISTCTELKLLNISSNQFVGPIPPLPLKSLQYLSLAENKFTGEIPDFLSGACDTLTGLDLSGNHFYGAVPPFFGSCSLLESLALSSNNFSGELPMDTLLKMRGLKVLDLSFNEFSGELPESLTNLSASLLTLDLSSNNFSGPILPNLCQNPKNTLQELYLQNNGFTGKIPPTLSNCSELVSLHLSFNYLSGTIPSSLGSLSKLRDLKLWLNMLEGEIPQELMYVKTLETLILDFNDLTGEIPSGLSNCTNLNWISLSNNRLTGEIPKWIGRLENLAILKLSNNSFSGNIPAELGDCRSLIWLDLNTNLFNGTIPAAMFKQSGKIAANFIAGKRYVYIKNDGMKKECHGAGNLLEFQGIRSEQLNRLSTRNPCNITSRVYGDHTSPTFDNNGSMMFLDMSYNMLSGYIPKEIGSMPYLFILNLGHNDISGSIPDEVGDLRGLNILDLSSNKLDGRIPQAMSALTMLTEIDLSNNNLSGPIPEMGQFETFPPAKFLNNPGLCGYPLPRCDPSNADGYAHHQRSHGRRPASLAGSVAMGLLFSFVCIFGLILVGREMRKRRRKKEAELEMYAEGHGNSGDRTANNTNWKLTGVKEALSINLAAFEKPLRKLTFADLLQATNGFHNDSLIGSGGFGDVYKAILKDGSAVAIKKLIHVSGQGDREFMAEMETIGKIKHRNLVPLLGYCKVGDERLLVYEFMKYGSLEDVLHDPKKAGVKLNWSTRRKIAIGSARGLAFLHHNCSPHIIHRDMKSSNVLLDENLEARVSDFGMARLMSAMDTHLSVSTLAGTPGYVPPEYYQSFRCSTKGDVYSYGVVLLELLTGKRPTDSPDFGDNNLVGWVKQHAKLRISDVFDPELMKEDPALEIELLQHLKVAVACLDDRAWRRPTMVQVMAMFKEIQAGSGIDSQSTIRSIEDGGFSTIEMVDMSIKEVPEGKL

2,3,22,23-O-tetramethylBL [Me-BL]
biological activity in plants (plants): lack of biological activity

CC(C)[C@H](C)[C@@H](O)[C@H](O)[C@@H](C)[C@H]1CC[C@H]2[C@@H]3COC(=O)[C@H]4C[C@H](O)[C@H](O)C[C@]4(C)[C@H]3CC[C@]12C [BL, brassinolide]
BL-induced BIN1 phosphorylation (BIN1 [1]): also observed | BL binding activity [2]: greatly reduced | BL binding activity [3]: greatly reduced | Bmax (BL binding sites) (BIN1-GFP [4]): 2.66 pmole mg^−1 membrane protein | time to 50% competition by unlabelled BL (reversibility of binding) (BIN1 [5]): less than 1 min | time for specific BL binding to reach equilibrium (BIN1 [5]; incubation at 25° C.): ≤ 15 min | Bmax (BL binding sites) (BIN1 [6]): 0.23 pmole mg^−1 membrane protein | BL-induced BIN1 phosphorylation (BIN1 [7]): not

CC(C)[C@H](C)[C@@H](O)[C@H](O)[C@@H](C)[C@H]1CC[C@H]2[C@@H]3CC(=O)[C@H]4C[C@H](O)[C@H](O)C[C@]4(C)[C@H]3CC[C@]12C [castasterone]
activity in bioassays relative to BL (plants; bioassays): about 5 times less active than BL | relative binding affinity (RBA, ratio between IC50 of a competitor and that of BL) (BIN1-GFP [8]; membrane fraction of BIN1-GFP plants): 4-5 times lower than BL | IC50 (BIN1-GFP [8]; read-out: 50% inhibition concentration, IC50, of [3H]-BL binding, membrane fraction of BIN1-GFP plants): 0.34 µM

C[C@H]([C@H](O)CCC(C)(C)O)[C@H]1CC[C@@]2(O)C3=CC(=O)[C@@H]4C[C@@H](O)[C@@H](O)C[C@]4(C)[C@H]3CC[C@]12C [ecdysone]
biological activity in plants (plants): lack of biological activity | IC50 (BIN1-GFP [8]): > 10 µM
